Laboratory results published in the supplement of paper PMC5752671.
Where a name gives a salt, the structure may show the parent alone.

Legend:
Assay in all cases: area under dose-response curve (cell viability) (AUC (arbitrary, % viability x log concentration)); higher = less sensitive (more viable)
Conditions in all cases: 4 days
U937 = test system: U937
Procedure, shortened: (§1)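 After overnight plating on extracellular-matrix-coated 384-well plates, fourteen leukemia cell lines received drugs by robot in duplicate at eight per-drug concentrations spanning 4–5 logs within 10^–12–10^–4 M. CellTiter-Glo was used to read viability 4 days later, and a four-parameter sigmoid was fitted to the mean of the duplicates. The reported figure is the area under this curve.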

KASUMI1 = test system: KASUMI1
Procedure, shortened: as §1

SKM1 = test system: SKM1
Procedure, shortened: as §1

OCI-AML3 = test system: OCI-AML3
Procedure, shortened: as §1

OCI-AML2 = test system: OCI-AML2
Procedure, shortened: as §1

EOL-1 = test system: EOL-1
Procedure, shortened: as §1

MOLM/13 = test system: MOLM/13
Procedure, shortened: as §1

MOLM/16 = test system: MOLM/16
Procedure, shortened: as §1

THP-1 = test system: THP-1
Procedure, shortened: as §1

HL60 = test system: HL60
Procedure, shortened: as §1

Structure (SMILES)	area under dose-response curve (U937)	area under dose-response curve (KASUMI1)	area under dose-response curve (SKM1)	area under dose-response curve (OCI-AML3)	area under dose-response curve (OCI-AML2)	area under dose-response curve (EOL-1)	area under dose-response curve (MOLM/13)	area under dose-response curve (MOLM/16)	area under dose-response curve (THP-1)	area under dose-response curve (HL60)
Cc1cc(Nc2cc(N3CCN(C)CC3)nc(Sc3ccc(NC(=O)C4CC4)cc3)n2)n[nH]1 [Tozasertib]	215	356	421	370	298	64.9	79	210	519	505
CC1=C(/C=C/C(C)=C/C=C/C(C)=C/C(=O)O)C(C)(C)CCC1 [Tretinoin]	452	549	410	333	440	285	449	574	505	506
CCCC(CCC)C(=O)O [Valproic acid]	692	696	688	718	684	691	690	682	656	703
COc1cc2/c(=N/c3ccc(Br)cc3F)nc[nH]c2cc1OCC1CCN(C)CC1 [Vandetanib]	730	621	678	697	627	575	619	669	724	675
Clc1ccc(Nc2nnc(Cc3ccncc3)c3ccccc23)cc1 [Vatalanib]	688	590	653	694	654	488	683	673	722	712
CC[C@]1(O)C[C@@H]2CN(CCc3c([nH]c4ccccc34)[C@@](C(=O)OC)(c3cc4c(cc3OC)N(C)[C@H]3[C@@](O)(C(=O)OC)[C@H](OC(C)=O)[C@]5(CC)C=CCN6CC[C@]43[C@@H]65)C2)C1 [Vinblastine sulfate]	4.36	59.3	61.1	11.7	5.01	7.37	6.96	23.2	20.9	50.7
CC[C@]1(O)C[C@H]2CN(CCc3c([nH]c4ccccc34)[C@@](C(=O)OC)(c3cc4c(cc3OC)N(C=O)[C@H]3[C@@](O)(C(=O)OC)[C@H](OC(C)=O)[C@]5(CC)C=CCN6CC[C@]43[C@@H]65)C2)C1 [Vincristine sulfate]	4.64	78.2	59.2	12.2	5.4	7.29	6.74	35.7	25.4	52.9
CCC1=C[C@@H]2CN(C1)Cc1c([nH]c3ccccc13)[C@@](C(=O)OC)(c1cc3c(cc1OC)N(C)[C@H]1[C@@](O)(C(=O)OC)[C@H](OC(C)=O)[C@]4(CC)C=CCN5CC[C@]31[C@@H]54)C2 [Vinorelbine tartrate]	136	303	329	301	328	216	298	311	315	295
O=C(CCCCCCC(=O)Nc1ccccc1)NO [Vorinostat]	508	539	584	530	450	506	502	463	541	534
COCC[n+]1c2c(n(Cc3cnccn3)c1C)C(=O)c1ccccc1C2=O [YM-155]	125	160	69.8	86.8	246	203	8.78	281	265	85.2
FC(F)c1nc2ccccc2n1-c1nc(N2CCOCC2)nc(N2CCOCC2)n1 [ZSTK-474]	541	502	563	584	554	492	609	515	589	599
